Experiments:
A549-luc cells = test: Experimental lung metastasis model, A549-luc cells injected into tail vein; type: in vivo, SCID beige mice; conditions: 0.5 mg/mouse i.p., 3× per week starting 1 day after cell injection; bioluminescence after 2 weeks; FIG. 3D
Protocol: FIGS. 3A-3D| KRAS-mutated cells require autocrine TRAIL-R2-mediated migration for metastasis formation. FIG. 3A, 2×10^6 A549-luc cells infected with shTRAIL-R2 or control vector were injected into the tail vein of SCID beige mice. Metastatic burden in the lungs was detected after three weeks by quantification of bioluminescence (Photons/second). Three representative mice from each group are shown (n=9/group). FIG. 3B, FIG. 3C Five lungs from each group that were closest to the average value of the respective group in the H&E quantification were subjected to further Ki67 and TUNEL stainings and quantified as Ki67 and TUNEL positive area within tumor nodules, respectively. Representative images are shown. FIG. 3D, A549-luc parental cells were injected as in FIG. 3A, mice were treated with Vehicle (PBS) or 0.5 mg TRAIL-R2-Fc/mouse starting the next day, 3× per week.
Bioluminescence was determined after 2 weeks, representative mice are shown (n=8/group). Arrows indicate Ki67/TUNEL-positive cells. Dots represent individual lungs. Values are means+/−SEM; ns, not significant; * P<0.05 Student's t-test.
Animal Models. […] Photons per second (Photon Flux) were quantified using the Ivis Spectrum software. […] After one week, tumours were palpable and their size was measured by caliper. […]

A549 cells = test: xCELLigence migration assay, A549; type: cell-based, human; conditions: 100 μg/ml recombinant receptor-Fc protein during migration, FIG. 1F
Protocol: siRNA-mediated knockdown. Knockdown experiments were performed by transient transfection of RISC-free control siRNA, siRNA pools or single sequences (Dharmacon) to silence the indicated proteins using Dharmafect I (Dharmacon) following the instruction manual. All cell lines were incubated for 48 h to achieve sufficient knockdown.
Migration assays. Migration assays were performed using the xCELLigence System (Roche) according to manufacturer's instructions. See Supplementary Methods for detailed description.
Migration assays were performed using the xCELLigence System (Roche) that uses specially designed microtiter plates containing gold microelectrodes to measure electrical impedance of cells adhering to electrodes in real time. Increased impedance of background control wells was subtracted from all other values, the increase in electrical impedance/migration of control siRNA-transfected/control vector-infected cells was then defined as 100% migration and relative migration of all other transfected samples was calculated as compared to control-transfected cells, accordingly. Migration plates (CIM 16) are based on the Boyden chamber principle, the lower surface of the filter is covered with microelectrodes measuring cells that have migrated through the pores and adhere to the lower surface of the filter in real time. […]

Rac1 [1] = test: Rac1 pulldown assay (GTP-bound Rac1, PAK1-beads), A549; type: cell-based, human; conditions: A549 cells, iz-TRAIL 100 ng/ml; FIG. 8E
Protocol: FIGS. 8A-8J| Autocrine TRAIL is required for caspase-independent migration and Rac1 activation. FIG. 8A, DLD-1 cells were transfected with the indicated siRNAs and subjected to migration assays. FIG. 8B, A549 cells were treated with DMSO or 10 μM zVAD-fmk and were subsequently subjected to migration assays. FIG. 8C, Dominant negative FADD (dnFADD)-overexpressing DLD-1 cells were transfected with the indicated siRNAs and subjected to migration assays. FIG. 8D, Parental and DLD-1 cells overexpressing dnFADD were treated with 1 μg/ml iz-TRAIL for the indicated times, subsequently lysed and subjected to Western blot analysis. FIG. 8E, A549 cells were treated with iz-TRAIL (100 ng/ml) for the indicated times and subjected to pulldown of GTP-bound Rac1 using PAK1-beads (Millipore-Rac1 activation kit). Cell lysates were subsequently analyzed by Western blotting. FIG. 8F, Control or shTRAIL-R2-infected A549 cells were subjected to pulldown of GTP-bound Rac1 as in FIG. 8E. FIG. 8G, A549 cells were transfected with the indicated siRNAs and subjected to migration assays. FIG. 8H, KRAS-mutated (DLD-1, HCT116) and isogenic KRAS-WT (DKO4, Hkh-2) cell lines were lysed and subjected to Western blotting. FIG. 8I, KRAS-mutated H460 cells were transfected with the indicated siRNAs. […]
2.5×10^6 cells were seeded into 10 cm dishes. […] Proteins were separated by SDS-PAGE (NuPAGE) and analyzed by Western blotting.

Rac1 [2] = test: Rac1 pulldown assay (GTP-bound Rac1, PAK1-beads), isogenic DLD-1 and DKO4; type: cell-based, human; conditions: isogenic KRAS-mutated DLD-1 versus KRAS-WT DKO4, iz-TRAIL 100 ng/ml; FIG. 7E
Protocol: FIGS. 7A-7F| Autocrine migration is independent of the DISC but requires Rac1. FIG. 7A, FADD-deficient clones 10, 41 and 50 were transfected with the indicated siRNAs and subjected to migration assays. FIG. 7B, Control vector-infected or shTRAIL-R2-infected A549 cells were fixed and stained using Texas red-coupled phalloidin and DAPI. Representative confocal images are shown (×400).c, A549 cells were treated with DMSO, PD98059 (10 μM), PIK75 (100 nM) or NSC23766 (100 μM) and subjected to migration assays. FIG. 7D, A549 cells were transfected with the indicated siRNAs and subjected to migration assays. FIG. 7E, Isogenic DLD-1 and DKO4 cells were treated with iz-TRAIL (100 ng/ml) for the indicated times and then subjected to pulldown of GTP-bound Rac1 using PAK1-beads (Millipore-Rac1 activation kit). FIG. 7F, KRAS-WT DKO4 cells were transfected with the indicated siRNAs and prior to migration treated with vehicle (H2O) or 10 μM Y27632. Representative Western blots are shown.
2.5×10^6 cells were seeded into 10 cm dishes. The next day, cells were incubated with and without 100 ng/ml iz-TRAIL. Cell lysis and Rac1 pulldown was performed using a Rac1-pulldown kit (Millipore) according to the manufacturer's instructions. Proteins were separated by SDS-PAGE (NuPAGE) and analyzed by Western blotting.

For “TRAIL-R2-Fc fusion protein: majority of the extracellular domain of human TRAIL-R2 fused to the Fc portion of human IgG1 (SEQ ID NO: 15); TRAIL-inhibiting”, the “metastasis (metastatic burden in lungs, bioluminescence)” value (A549-luc cells) was “significantly reduced metastasis” and the “migration (normalized to PBS-treated cells)” value (A549 cells) was “suppressed migration to a similar extent”.

B1: TRAIL: recombinant iz-TRAIL produced in E. coli, LPS-free after purification (protein)
chain: MAMMEVQGGPSLGQTCVLIVIFTVLLQSLCVAVTYVYFTNELKQMQDKYSKSGIACFLKEDDSYWDPNDEESMNSPCWQVKWQLRQLVRKMILRTSEETISTVQEKQQNISPLVRERGPQRVAAHITGTRGRSNTLSSPNSKNEKALGRKINSWESSRSGHSFLSNLHLRNGELVIHEKGFYYIYSQTYFRFQEEIKENTKNDKQMVQYIYKYTSYPDPILLMKSARNSCWSKDAEYGLYSIYQGGIFELKENDRIFVSVTNEHLIDMDHEASFFGAFLVG
With B1 the “Rac1 activation (GTP-bound Rac1 pulldown)” value (Rac1 [1]) was “able to activate Rac1” and the “Rac1 activation (GTP-bound Rac1 pulldown)” value (Rac1 [2]) was “only capable of doing so in KRAS-mutated cells”.

Reference: patent publication US10093716B2, “Methods for treating cancer” (UCL BUSINESS PLC, priority 2013, dated 2018)
